Assay results taken from patent US20260000652A1, “IMPEDING PLATINUM-BASED CHEMOTHERAPEUTIC INDUCED OTOTOXICITY USING A COLONY STIMULATING FACTOR 1 RECEPTOR INHIBITOR” (THE UNITED STATES OF AMERICA, AS REPRESENTED BY THE …, priority 2022, published 2026).
Entries after “also recorded” stand apart in the source; their conditions may differ.

Columns and labels:
cochlear macrophages = assay: Cochlear macrophage ablation, DAPI and CX3CR1-GFP staining of cochlear sections; format: in vivo, mouse; conditions: for ablation of cochlear macrophages: DAPI and CX3CR1-GFP staining of cochlea, saline- and cisplatin-treated mice, vs no pexidartinib
Description: The CSF1R inhibitor can inhibit, directly and/or indirectly, macrophages, or microglia, or both. Inhibition and/or killing of macrophages and/or microglia can be referred to as “ablation.” The macrophages can comprise cochlear resident macrophages, or recruited macrophages, or both. Fractalkine receptor CX3CR1 is a regulator of macrophage function and can be utilized to label macrophages. The resident macrophages can comprise perivascular resident macrophage-like melanocytes (PVM/Ms). PVM/Ms can regulate the integrity of the blood labyrinth barrier (BLB), a barrier between the vasculature and the inner ear fluids (endolymph or perilymph). The BLB can control exchanges between the blood and fluids from intrastitial space in cochlea. The BLB can maintain the inner ear fluid ionic homeostasis. The BLB can restrict entry of most blood-borne (toxic) substances into inner ear tissues. The BLB can selectively pass ions, fluids, and nutrients into cochlea. The CSF1R inhibitor can affect, directly and/or indirectly, the blood labyrinth barrier (BLB) and one or more of its functions.
(§1) A clinically relevant mouse model of cisplatin-induced ototoxicity was developed and used to examine whether macrophages play a role in hearing loss in response to cisplatin. Pexidartinib is an inhibitor of the colony stimulating factor 1 receptor (CSF1R), which aids in the survival of microglia and cochlear resident macrophages.

[1] = Cisplatin-induced weight loss in mouse model of cisplatin ototoxicity; format: in vivo; conditions: cisplatin-treated mice with macrophage ablation
Description: as §1

[2] = tested on: cisplatin-induced hearing loss; assay: Hearing sensitivity by auditory brainstem responses (ABR) in cisplatin-treated mice; format: in vivo, mouse; conditions: cisplatin plus pexidartinib vs cisplatin only, after end of third cycle
outer hair cell function = assay: Distortion product otoacoustic emissions (DPOAE) in cisplatin-treated mice; format: in vivo, mouse; conditions: cisplatin plus pexidartinib vs cisplatin only; 16, 22, 32, 40 kHz
outer hair cells = assay: Outer hair cell survival, Myosin 7a staining and quantification of cochlear hair cells; format: in vivo, mouse; conditions: cisplatin mice co-treated with PLX3397, Myosin 7a staining, 16, 22.4, 32, 40 kHz regions
Protocol: Hearing sensitivity was assessed prior to pexidartinib/cisplatin administration and after the end of the third cycle of the treatment protocol using auditory brainstem responses (ABR) and distortion product otoacoustic emissions (DPOAE). […] Histology can be performed using MyosinVIla (turquoise).
The data are supportive of macrophage ablation being protective against cisplatin-induced hearing loss. […] Data and other information relevant to the experimental examples are depicted in the various figures of the drawings and summarized herein.

[3] = Mass spectrometry measurement of platinum content in microdissected inner ear tissues; format: in vivo, mouse; conditions: spiral ganglion neurons, organ of Corti, stria vascularis, utricle, saccule

Compound | number of macrophages in the cochlea (cochlear macrophages; cisplatin vs control, whole cochlear section) | ablation of cochlear macrophages (cochlear macrophages) | ablation of cochlear macrophages (cochlear macrophages; listed as PL3397) | cisplatin-induced weight loss [1] | cisplatin-induced hearing loss (ABR threshold shifts) [2] | cisplatin-induced hearing loss (ABR threshold shifts) ([2]; listed as PLX3397) | OHC function (DPOAE amplitudes) (outer hair cell function) | OHC survival (outer hair cells) | OHC survival (outer hair cells; listed as PLX3397) | cisplatin entry into the inner ear (platinum content) [3]
N.N.[Cl][Pt][Cl] [cisplatin] | reduced number of macrophages in the cochlea |  |  |  |  |  |  |  |  | 
FC(F)(F)c1ccc(CNc2ccc(Cc3c[nH]c4ncc(Cl)cc34)cn2)cn1 [pexidartinib] |  | ablate macrophages; also recorded: effectively ablates cochlear macrophages; also recorded: ablation of macrophages | effectively ablates cochlear macrophages | significantly reduced cisplatin-induced weight loss | significantly reduced hearing loss | significantly reducing cisplatin-induced hearing loss | protected from the loss of OHC function; also recorded: higher DPOAE amplitudes | increased OHC survival; also recorded: protection of outer hair cells against cisplatin-induced hair cell loss | greater OHC survival | reduces cisplatin entry into the inner ear; also recorded: reduced cisplatin entry to the inner ear
